According to ChEMBL document CHEMBL1129938, “Synthesis and biological evaluation of nonclassical 2,4-diamino-5-methylpyrido[2,3-d]pyrimidines with novel side chain substituents as potential inhibitors of dihydrofolate reductases” (J Med Chem, 1997):

Legend:
[1] = molecular target: T1, Dihydrofolate reductase (Pneumocystis carinii, UniProt P16184)
T1 sequence (P16184 whole entry): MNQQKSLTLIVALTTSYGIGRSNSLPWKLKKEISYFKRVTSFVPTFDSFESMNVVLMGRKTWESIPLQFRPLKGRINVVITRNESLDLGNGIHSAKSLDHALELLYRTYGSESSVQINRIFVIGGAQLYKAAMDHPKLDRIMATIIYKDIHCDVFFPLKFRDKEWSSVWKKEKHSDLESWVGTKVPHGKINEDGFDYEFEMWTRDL
Description: Inhibition of Dihydrofolate Reductase of Pneumocystis carinii.

[2] = molecular target: T2, Bifunctional dihydrofolate reductase-thymidylate synthase (Toxoplasma gondii, UniProt Q07422)
T2 sequence (Q07422 whole entry): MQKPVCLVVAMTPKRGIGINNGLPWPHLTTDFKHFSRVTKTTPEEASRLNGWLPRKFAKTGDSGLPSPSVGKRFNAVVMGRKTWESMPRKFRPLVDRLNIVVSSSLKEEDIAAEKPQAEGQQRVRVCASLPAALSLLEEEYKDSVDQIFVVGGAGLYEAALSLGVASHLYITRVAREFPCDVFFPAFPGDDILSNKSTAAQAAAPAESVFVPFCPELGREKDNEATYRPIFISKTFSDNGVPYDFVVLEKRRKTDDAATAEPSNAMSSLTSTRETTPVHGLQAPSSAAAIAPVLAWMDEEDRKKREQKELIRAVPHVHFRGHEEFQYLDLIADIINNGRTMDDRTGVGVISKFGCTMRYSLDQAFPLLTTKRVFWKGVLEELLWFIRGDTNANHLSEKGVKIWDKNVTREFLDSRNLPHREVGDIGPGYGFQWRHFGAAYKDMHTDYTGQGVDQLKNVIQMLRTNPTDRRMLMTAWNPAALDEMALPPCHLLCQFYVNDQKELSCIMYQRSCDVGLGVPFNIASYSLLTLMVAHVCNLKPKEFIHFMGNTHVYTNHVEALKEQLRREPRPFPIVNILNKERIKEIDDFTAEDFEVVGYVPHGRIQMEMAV
Description: Inhibition of Dihydrofolate Reductase of Toxoplasma gondii.

[3] = molecular target: T3, Dihydrofolate reductase (Rattus norvegicus, UniProt Q920D2)
T3 sequence (Q920D2 whole entry): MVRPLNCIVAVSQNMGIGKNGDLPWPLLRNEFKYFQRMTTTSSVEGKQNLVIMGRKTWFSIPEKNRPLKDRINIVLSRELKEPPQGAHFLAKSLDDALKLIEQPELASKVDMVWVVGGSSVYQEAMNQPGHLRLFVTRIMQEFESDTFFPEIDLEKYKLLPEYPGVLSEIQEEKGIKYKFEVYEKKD
Description: Inhibition of Dihydrofolate Reductase of Rat Liver.

[4] = Partition coefficient (logP); format: physicochemical; conditions: octanol/water
[5] = tested on: CHO; assay: Cell culture inhibition was assessed by measuring incorporation of [3H]uracil into Toxoplasma gondii cells (CHO cell line); format: functional, cell-based; conditions: Cricetulus griseus
[6] = Selectivity ratio of Toxoplasma gondii cell culture to the T. gondii (tg) Dihydrofolate Reductase; format: functional

Compound | IC50 [1] | IC50 [3] | IC50 [2] | logP [4] | IC50 [5] | Selectivity ratio [6]
COc1ccc(-c2ccccc2)cc1NCc1cnc2nc(N)nc(N)c2c1C | – | 440 nM | 68 nM | 4.77 | – | –
COc1cc2c(cc1OC)CN(Cc1cnc3nc(N)nc(N)c3c1C)CC2 | 850 nM | 130 nM | 110 nM | – | – | –
COc1ccc2c(ccn2Cc2cnc3nc(N)nc(N)c3c2C)c1 | 570 nM | 470 nM | 77 nM | 3.07 | 1000 nM | 13
Cc1c(C)c(-n2cccc2)c(C)c(C)c1NCc1cnc2nc(N)nc(N)c2c1C | 620 nM | 170 nM | 75 nM | – | – | –

Now from value to compound, other results behind:

IC50 [1] | IC50 [3] | Compound | IC50 [2] | logP [4] | IC50 [5] | Selectivity ratio [6]
290 nM | 150 nM | COc1cccc2c1CCN2Cc1cnc2nc(N)nc(N)c2c1C | 48 nM | – | – | –
– | 3500 nM | COc1cc(NCc2cnc3nc(N)nc(N)c3c2C)c(-n2cccc2)cc1OC | 600 nM | – | – | –
350 nM | 230 nM | COc1cc(-n2cccc2)c(OC)cc1NCc1cnc2nc(N)nc(N)c2c1C | 33 nM | – | – | –
410 nM | 230 nM | COc1cc2c(cc1OC)N(Cc1cnc3nc(N)nc(N)c3c1C)CC2 | 49 nM | 2.33 | 25100 nM | 512
250 nM | 170 nM | COc1ccc2c(c1)CCN2Cc1cnc2nc(N)nc(N)c2c1C | 57 nM | – | – | –
